Results reported in ChEMBL document CHEMBL3046389, “Synthesis and biological evaluation of novel hydroquinone dimethyl ethers as potential anticancer and antimicrobial agents” (2013).
In brackets after ≈: the same amount, converted by molar mass.

Assays:
Format in all cases: functional
[1] = test system: K562; assay: Anticancer activity against Homo sapiens (human) K562 cells after 48 hr by SRB assay; conditions: K562, 48 h
[2] = test system: MDA-MB-468; assay: Growth inhibition of Homo sapiens (human) MDA-MB-468 cells at 10 uM after 48 hr by SRB assay; conditions: MDA-MB-468, 48 h, read-out: GI
[3] = test system: T47D; assay: Growth inhibition of Homo sapiens (human) T47D cells at 10 uM after 48 hr by SRB assay; conditions: read-out: GI
[4] = test system: TK-10; assay: Growth inhibition of Homo sapiens (human) TK10 cells at 10 uM after 48 hr by SRB assay; conditions: TK-10, 48 h, read-out: GI
[5] = test system: Candida albicans; assay: Antimicrobial activity against Candida albicans DSM 70014 after 48 hr by two-fold serial broth dilution method; conditions: DSM 70014, 48 h
[6] = test system: Pseudomonas aeruginosa; assay: Antimicrobial activity against Pseudomonas aeruginosa ATCC 10145 after 48 hr by two-fold serial broth dilution method; conditions: ATCC 10145, 48 h
[7] = test system: U-251; assay: Anticancer activity against Homo sapiens (human) U251 cells after 48 hr by SRB assay; conditions: U-251, 48 h
[8] = test system: SF-295; assay: Anticancer activity against Homo sapiens (human) SF295 cells after 48 hr by SRB assay; conditions: SF-295, 48 h
[9] = test system: SF-268; assay: Anticancer activity against Homo sapiens (human) SF268 cells after 48 hr by SRB assay; conditions: SF-268, 48 h
[10] = test system: HT-29; assay: Anticancer activity against Homo sapiens (human) HT-29 cells after 48 hr by SRB assay; conditions: HT-29, 48 h
[11] = test system: COLO 205; assay: Anticancer activity against Homo sapiens (human) COLO205 cells after 48 hr by SRB assay; conditions: COLO 205, 48 h
[12] = test system: NCI-H23; assay: Anticancer activity against Homo sapiens (human) NCI-H23 cells after 48 hr by SRB assay; conditions: NCI-H23, 48 h
[13] = test system: HOP-92; assay: Anticancer activity against Homo sapiens (human) HOP92 cells after 48 hr by SRB assay; conditions: HOP-92, 48 h
[14] = test system: EKVX; assay: Anticancer activity against Homo sapiens (human) EKVX cells after 48 hr by SRB assay
[15] = test system: K562; assay: Growth inhibition of Homo sapiens (human) K562 cells at 10 uM after 48 hr by SRB assay; conditions: K562, 48 h, read-out: GI
[16] = test system: BT-549; assay: Anticancer activity against Homo sapiens (human) BT549 cells after 48 hr by SRB assay; conditions: BT-549, 48 h
[17] = test system: MDA-MB-231; assay: Anticancer activity against Homo sapiens (human) MDA-MB-231/ATCC cells after 48 hr by SRB assay; conditions: MDA-MB-231, 48 h
[18] = test system: DU-145; assay: Anticancer activity against Homo sapiens (human) DU145 cells after 48 hr by SRB assay; conditions: DU-145, 48 h
[19] = test system: ACHN; assay: Anticancer activity against Homo sapiens (human) ACHN cells after 48 hr by SRB assay
[20] = test system: A498; assay: Anticancer activity against Homo sapiens (human) A498 cells after 48 hr by SRB assay; conditions: A498, 48 h
[21] = test system: ACHN; assay: Growth inhibition of Homo sapiens (human) ACHN cells at 10 uM after 48 hr by SRB assay; conditions: read-out: GI
[22] = test system: SK-OV-3; assay: Anticancer activity against Homo sapiens (human) SKOV3 cells after 48 hr by SRB assay; conditions: SK-OV-3, 48 h
[23] = test system: SK-MEL-28; assay: Anticancer activity against Homo sapiens (human) SK-MEL-28 cells after 48 hr by SRB assay; conditions: SK-MEL-28, 48 h
[24] = test system: Bacillus subtilis; assay: Antimicrobial activity against Bacillus subtilis ATCC 6633 after 48 hr by two-fold serial broth dilution method; conditions: ATCC 6633, 48 h
[25] = test system: OVCAR-3; assay: Growth inhibition of Homo sapiens (human) OVCAR3 cells at 10 uM after 48 hr by SRB assay; conditions: OVCAR-3, 48 h, read-out: GI
[26] = test system: UACC-62; assay: Growth inhibition of Homo sapiens (human) UACC62 cells at 10 uM after 48 hr by SRB assay; conditions: UACC-62, 48 h, read-out: GI
[27] = test system: MDA-MB-435; assay: Growth inhibition of Homo sapiens (human) MDA-MB-435 cells at 10 uM after 48 hr by SRB assay; conditions: MDA-MB-435, 48 h, read-out: GI
[28] = test system: M14; assay: Growth inhibition of Homo sapiens (human) M14 cells at 10 uM after 48 hr by SRB assay; conditions: M14, 48 h, read-out: GI
[29] = test system: U-251; assay: Growth inhibition of Homo sapiens (human) U251 cells at 10 uM after 48 hr by SRB assay; conditions: U-251, 48 h, read-out: GI
[30] = test system: SNB-75; assay: Growth inhibition of Homo sapiens (human) SNB75 cells at 10 uM after 48 hr by SRB assay; conditions: SNB-75, 48 h, read-out: GI
[31] = test system: SW-620; assay: Growth inhibition of Homo sapiens (human) SW620 cells at 10 uM after 48 hr by SRB assay; conditions: SW-620, 48 h, read-out: GI
[32] = test system: HT-29; assay: Growth inhibition of Homo sapiens (human) HT-29 cells at 10 uM after 48 hr by SRB assay; conditions: HT-29, 48 h, read-out: GI
[33] = test system: HCT-15; assay: Growth inhibition of Homo sapiens (human) HCT15 cells at 10 uM after 48 hr by SRB assay; conditions: HCT-15, 48 h, read-out: GI
[34] = read-out: LC50 (the source's name)

Molecule `COc1ccc(OC)c(/C=C/C(=O)N/N=C/c2ccc(Cl)cc2)c1` has a GI50 [1] of 48.8 nM, a TGI [1] of over 100000 nM and a CC50 [1, 34] of over 100000 nM. For the same molecule, the inhibition of growth at 10 µM [2] was 104%, the inhibition of growth at 10 µM [3] was 70.5% and the inhibition of growth at 10 µM [4] was 49%. It also gave an MFC [5] of 50 µg/mL (≈ 145 µM), an MIC [5] of 25 µg/mL (≈ 72.5 µM) and an MBC [6] of 50 µg/mL (≈ 145 µM). For the same molecule, the MIC [6] was 50 µg/mL (≈ 145 µM), the GI50 [7] was 184 nM and the TGI [7] was 1490 nM. The CC50 [7, 34] was over 100000 nM, the GI50 [8] was 129 nM and the TGI [8] was 6440 nM. The CC50 [8, 34] was over 100000 nM, the GI50 [9] was 718 nM and the TGI [9] was over 100000 nM. For the same molecule, the CC50 [9, 34] was over 100000 nM, the GI50 [10] was 43.5 nM and the TGI [10] was 1520 nM. It also gave a CC50 [10, 34] of over 100000 nM, a GI50 [11] of 153 nM and a TGI [11] of 595 nM. For the same molecule, the CC50 [11, 34] was 63900 nM, the GI50 [12] was 148 nM and the TGI [12] was 2460 nM. It also gave a CC50 [12, 34] of over 100000 nM, a GI50 [13] of 4430 nM and a TGI [13] of 58900 nM. The CC50 [13, 34] was over 100000 nM, the GI50 [14] was 816 nM and the TGI [14] was over 100000 nM. It also gave a CC50 [14, 34] of over 100000 nM, an inhibition of growth at 10 µM [15] of 86% and a GI50 [16] of 1170 nM. It also gave a TGI [16] of over 100000 nM, a CC50 [16, 34] of over 100000 nM and a GI50 [17] of 1370 nM. It also gave a TGI [17] of over 100000 nM, a CC50 [17, 34] of over 100000 nM and a GI50 [18] of 217 nM. The TGI [18] was 8400 nM, the CC50 [18, 34] was over 100000 nM and the GI50 [19] was 1490 nM. The TGI [19] was over 100000 nM, the CC50 [19, 34] was over 100000 nM and the GI50 [20] was 182 nM. For the same molecule, the LC50 [20] was over 100000 nM, the TGI [20] was 27500 nM and the inhibition of growth at 10 µM [21] was 51.6%. The GI50 [22] was 149 nM, the LC50 [22] was over 100000 nM and the TGI [22] was 13900 nM. For the same molecule, the GI50 [23] was 372 nM, the LC50 (concentration killing 50% of cells) [23] was over 100000 nM and the TGI [23] was over 100000 nM. For the same molecule, the MBC [24] was 50 µg/mL (≈ 145 µM), the MIC [24] was 50 µg/mL (≈ 145 µM) and the inhibition of growth at 10 µM [25] was 143%. The inhibition of growth at 10 µM [26] was 57.9%, the inhibition of growth at 10 µM [27] was 132% and the inhibition of growth at 10 µM [28] was 134%. The inhibition of growth at 10 µM [29] was 81.6%, the inhibition of growth at 10 µM [30] was 56% and the inhibition of growth at 10 µM [31] was 80.1%. It also gave an inhibition of growth at 10 µM [32] of 93.5% and an inhibition of growth at 10 µM [33] of 70.6%.
